Consider 26 molecules from paper PMC8224687, “Lipophilicity, Pharmacokinetic Properties, and Molecular Docking Study on SARS-CoV-2 Target for Betulin Triazole Derivatives with Attached 1,4-Quinone” (Pharmaceutics, 2021).

A word on the chromatographic logP: it is a lipophilicity value derived from retention on a column. A lower chromatographic logP goes with lower lipophilicity.

The structures appear in SMILES notation. Like-named read-outs stand apart in the source and are kept apart here.

Series [1] in a line: Experimental lipophilicity by RP-TLC (RM0, logPTLC, hydrophobic index). To be noted: for RM0 (chromatographic parameter of lipophilicity): RP-TLC, acetone / TRIS 0.2 M pH 7.4, extrapolated to zero acetone; for logPTLC (experimental lipophilicity) / chromatographic logP: from RM0 by calibration curve Equation (4); for hydrophobic index (φ0): φ0 = −RM0/b; for chromatographic logP: logPTLC (experimental lipophilicity).

For series [2] the following is noted: pH 7.4.
Details of series [3]: method as in PMID 9879505, doi:10.1021/ja00193a003. To be noted: literature values of standard substances ref 52, 53; cited from earlier work.

On to `C=C(C)[C@@H]1CC[C@]2(COC(=O)c3cn(CCCOC4=C(Cl)C(=O)c5ccccc5C4=O)nn3)CC[C@]3(C)C(CCC4[C@@]5(C)CCC(=O)C(C)(C)C5CC[C@]43C)C12` (stereo partly shown) [Compound 14], for which, in series [1], the “RM0 (chromatographic parameter of lipophilicity)” value (shortened to “RM0”) is listed as 3.84, the “logPTLC (experimental lipophilicity)” value is listed as 4.93 and the “hydrophobic index (φ0)” value is given as 87.76.

For the molecule `CC(=O)c1ccc(Br)cc1` [4-Bromoacetophenone, 4-bromoacetophenone], in series [2], the “RM0” value is reported as 1.89.

Take `c1ccc2cc3ccccc3cc2c1` [Anthracene, anthracene, reference compound]: in series [1], the “RM0” value is listed as 3.48 and the chromatographic logP worked out at 4.52.

On to `C=C(C)[C@@H]1CC[C@]2(COC(=O)c3cn(CCCOC4=C(Cl)C(=O)c5ccccc5C4=O)nn3)CC[C@]3(C)C(CCC4[C@@]5(C)CC[C@H](O)C(C)(C)C5CC[C@]43C)C12` (stereo partly shown) [Compound 13], for which, in series [1], the “RM0” value was 3.78, the “logPTLC (experimental lipophilicity)” value is 4.87 and the “hydrophobic index (φ0)” value was found to be 87.13.

For `C=C(C)[C@@H]1CC[C@]2(COC(=O)c3cn(CCCO)nn3)CC[C@]3(C)C(CCC4[C@@]5(C)CC[C@H](OC(C)=O)C(C)(C)C5CC[C@]43C)C12` (stereo partly shown) [Compound 19], in series [1], the “RM0” value is reported as 5.07, the chromatographic logP stood at 6.33 and the “hydrophobic index (φ0)” value was found to be 86.06.

As for `C=C(C)[C@@H]1CC[C@]2(COC(=O)c3cn(CCCOC4=C(Cl)C(=O)c5ccccc5C4=O)nn3)CC[C@]3(C)C(CCC4[C@@]5(C)CC[C@H](OC(C)=O)C(C)(C)C5CC[C@]43C)C12` (stereo partly shown) [Compound 15], in series [1], the “RM0” value is 4.21, the “logPTLC (experimental lipophilicity)” value is listed as 5.35 and the “hydrophobic index (φ0)” value turned out to be 85.11.

Regarding `C=C(C)[C@@H]1CC[C@]2(COC(=O)c3cn(CCCOC4=C(Cl)C(=O)c5cccnc5C4=O)nn3)CC[C@]3(C)C(CCC4[C@@]5(C)CC[C@H](OC(=O)CC)C(C)(C)C5CC[C@]43C)C12` (stereo partly shown) [Compound 4], in series [1], the “RM0” value is listed as 4.08, the chromatographic logP is 5.21 and the “hydrophobic index (φ0)” value was 87.00.

For `C=C(C)[C@@H]1CC[C@]2(COC(=O)c3cn(CCCOC4=C(Cl)C(=O)c5ccc(C)nc5C4=O)nn3)CC[C@]3(C)C(CCC4[C@@]5(C)CC[C@H](O)C(C)(C)C5CC[C@]43C)C12` (stereo partly shown) [Compound 9], in series [1], the “RM0” value is on record as 3.65, the chromatographic logP came to 4.72 and the “hydrophobic index (φ0)” value came out at 82.43.

For `C=C(C)[C@@H]1CC[C@]2(COC(=O)c3cn(CCCOC4=C(Cl)C(=O)c5ccncc5C4=O)nn3)CC[C@]3(C)C(CCC4[C@@]5(C)CC[C@H](OC(C)=O)C(C)(C)C5CC[C@]43C)C12` (stereo partly shown) [Compound 7], in series [1], the “RM0” value is 4.07, the chromatographic logP is 5.2 and the “hydrophobic index (φ0)” value is listed as 83.48.

Turning to `CC(=O)Nc1ccccc1` [Acetanilide, acetanilide, reference compound], in series [1], the “RM0” value is given as 0.55 and the chromatographic logP is 1.19.

For the molecule `C=C(C)[C@@H]1CC[C@]2(COC(=O)c3cn(CCCOC4=C(Cl)C(=O)c5ccc(C)nc5C4=O)nn3)CC[C@]3(C)C(CCC4[C@@]5(C)CC[C@H](OC(=O)CC)C(C)(C)C5CC[C@]43C)C12` (stereo partly shown) [Compound 12], in series [1], the “RM0” value is 4.39, the “logPTLC (experimental lipophilicity)” value is 5.56 and the “hydrophobic index (φ0)” value stood at 88.32.

Take `C=C(C)[C@@H]1CC[C@]2(COC(=O)c3cn(CCCOC4=C(Cl)C(=O)c5ccccc5C4=O)nn3)CC[C@]3(C)C(CCC4[C@@]5(C)CC[C@H](OC(=O)CC)C(C)(C)C5CC[C@]43C)C12` (stereo partly shown) [Compound 16]: in series [1], the “RM0” value is recorded as 4.58, the chromatographic logP is 5.77 and the “hydrophobic index (φ0)” value turned out to be 86.18.

As to `C=C(C)[C@@H]1CC[C@]2(COC(=O)c3cn(CCCO)nn3)CC[C@]3(C)C(CCC4[C@@]5(C)CC[C@H](OC(=O)CC)C(C)(C)C5CC[C@]43C)C12` (stereo partly shown) [Compound 20], in series [1], the “RM0” value was 5.26, the chromatographic logP worked out at 6.55 and the “hydrophobic index (φ0)” value worked out at 87.13.

`C[C@]12C=CC(=O)C=C1CC[C@@H]1[C@@H]2C(=O)C[C@@]2(C)[C@H]1CC[C@]2(O)C(=O)CO` [Prednisone, prednisone, reference compound]: the chromatographic logP in the series “physchem” amounted to 1.39. The “RM0” value in series [1] is reported as 0.73.

`C=C(C)[C@@H]1CC[C@]2(COC(=O)c3cn(CCCOC4=C(Cl)C(=O)c5cccnc5C4=O)nn3)CC[C@]3(C)C(CCC4[C@@]5(C)CCC(=O)C(C)(C)C5CC[C@]43C)C12` (stereo partly shown) [Compound 2]: in series [1], the “RM0” value was 3.64, the chromatographic logP was determined as 4.71 and the “hydrophobic index (φ0)” value came to 83.14.

As to `C=C(C)[C@@H]1CC[C@]2(COC(=O)c3cn(CCCOC4=C(Cl)C(=O)c5ccncc5C4=O)nn3)CC[C@]3(C)C(CCC4[C@@]5(C)CCC(=O)C(C)(C)C5CC[C@]43C)C12` (stereo partly shown) [Compound 6], in series [1], the “RM0” value is on record as 3.59 and the “hydrophobic index (φ0)” value is 82.83.

For the molecule `C=C(C)[C@@H]1CC[C@]2(COC(=O)c3cn(CCCOC4=C(Cl)C(=O)c5ccncc5C4=O)nn3)CC[C@]3(C)C(CCC4[C@@]5(C)CC[C@H](OC(=O)CC)C(C)(C)C5CC[C@]43C)C12` (stereo partly shown) [Compound 8], in series [1], the “RM0” value is reported as 4.24, the “logPTLC (experimental lipophilicity)” value is 5.39 and the “hydrophobic index (φ0)” value turned out to be 88.21.

With `Clc1ccc(C(c2ccc(Cl)cc2)C(Cl)(Cl)Cl)cc1` [DDT, dichlorodiphenyltrichloroethane, reference compound], the logPlit in series [3] was 6.01. In series [1], the “RM0” value is reported as 4.87 and the “logPTLC (experimental lipophilicity)” value was determined as 6.17.

For the molecule `C=C(C)[C@@H]1CC[C@]2(COC(=O)c3cn(CCCO)nn3)CC[C@]3(C)C(CCC4[C@@]5(C)CC[C@H](O)C(C)(C)C5CC[C@]43C)C12` (stereo partly shown) [Compound 17], in series [1], the “RM0” value is listed as 4.40, the chromatographic logP was 5.57 and the “hydrophobic index (φ0)” value came to 82.62.

`C=C(C)[C@@H]1CC[C@]2(COC(=O)c3cn(CCCOC4=C(Cl)C(=O)c5ccncc5C4=O)nn3)CC[C@]3(C)C(CCC4[C@@]5(C)CC[C@H](O)C(C)(C)C5CC[C@]43C)C12` (stereo partly shown) [Compound 5]: in series [1], the “RM0” value is on record as 3.56 and the “hydrophobic index (φ0)” value turned out to be 79.81.

Consider `C=C(C)[C@@H]1CC[C@]2(COC(=O)c3cn(CCCOC4=C(Cl)C(=O)c5ccc(C)nc5C4=O)nn3)CC[C@]3(C)C(CCC4[C@@]5(C)CC[C@H](OC(C)=O)C(C)(C)C5CC[C@]43C)C12` (stereo partly shown) [Compound 11], for which, in series [1], the “RM0” value is 4.12, the “logPTLC (experimental lipophilicity)” value is recorded as 5.26 and the “hydrophobic index (φ0)” value stood at 85.94.

With `C=C(C)[C@@H]1CC[C@]2(COC(=O)c3cn(CCCOC4=C(Cl)C(=O)c5cccnc5C4=O)nn3)CC[C@]3(C)C(CCC4[C@@]5(C)CC[C@H](O)C(C)(C)C5CC[C@]43C)C12` (stereo partly shown) [Compound 1], in series [1], the “RM0” value is 3.51 and the “hydrophobic index (φ0)” value was determined as 82.40.

For the molecule `C=C(C)[C@@H]1CC[C@]2(COC(=O)c3cn(CCCO)nn3)CC[C@]3(C)C(CCC4[C@@]5(C)CCC(=O)C(C)(C)C5CC[C@]43C)C12` (stereo partly shown) [Compound 18], in series [1], the “RM0” value was 4.54, the chromatographic logP stood at 5.73 and the “hydrophobic index (φ0)” value was found to be 83.67.

Consider `C=C(C)[C@@H]1CC[C@]2(COC(=O)c3cn(CCCOC4=C(Cl)C(=O)c5cccnc5C4=O)nn3)CC[C@]3(C)C(CCC4[C@@]5(C)CC[C@H](OC(C)=O)C(C)(C)C5CC[C@]43C)C12` (stereo partly shown) [Compound 3], for which, in series [1], the “RM0” value is on record as 3.97, the “logPTLC (experimental lipophilicity)” value came out at 5.08 and the “hydrophobic index (φ0)” value stood at 84.76.

Regarding `C=C(C)[C@@H]1CC[C@]2(COC(=O)c3cn(CCCOC4=C(Cl)C(=O)c5ccc(C)nc5C4=O)nn3)CC[C@]3(C)C(CCC4[C@@]5(C)CCC(=O)C(C)(C)C5CC[C@]43C)C12` (stereo partly shown) [Compound 10], in series [1], the “RM0” value is on record as 3.77 and the “hydrophobic index (φ0)” value is reported as 83.85.

With `c1ccc(CCc2ccccc2)cc1` [Dibenzyl, dibenzyl], the “RM0” value in series [2] worked out at 3.65.
